# Experimental data: patent publication US20260048047A1, “SMALL-MOLECULE ACTIVATORS OF MYCOBACTERIUM TUBERCULOSIS ADENYLYL CYCLASE” (priority 2022, published 2026)
# Tested on: M. tuberculosis
# Test: Extracellular activity against M. tuberculosis in cholesterol media (Alamar Blue reduction assay)
# Format: cell-based, Mycobacterium tuberculosis
# Settings: Mycobacterium tuberculosis, 240 h, 7H12-Cholesterol media, 10 days; read-out: Cholesterol broth: alamar blue--EC50
row,SMILES,EC50
1,"Cn1ncnc1CC(=O)N1CCC(c2nc(-c3ccc(C(F)F)cc3)no2)CC1 [Compound 172, 1-(4-(3-(4-(difluoromethyl)phenyl)-1,2,4-oxadiazol-5-yl)piperidin-1-yl)-2-(1-methyl-1H-1,2,4-triazol-5-yl)ethan-1-one]",2.07 µM
2,"Cc1conc1CC(=O)N1CCC(c2nc(-c3ccc(F)cc3)no2)CC1 [Compound 11, 1-(4-(3-(4-fluorophenyl)-1,2,4-oxadiazol-5-yl)piperidin-1-yl)-2-(4-methylisoxazol-3-yl)ethan-1-one]",1.43 µM
3,"Cc1nonc1CC(=O)N1CCC(n2nnc(C3CCCC3)n2)CC1 [Compound 71, 1-(4-(5-cyclopentyl-2H-tetrazol-2-yl)piperidin-1-yl)-2-(4-methyl-1,2,5-oxadiazol-3-yl)ethan-1-one]",> 25 µM
4,"Cc1noc(CC(=O)N2CC3CC(C2)C3c2nc(-c3ccc(F)cc3)no2)n1 (centres unmarked) [Compound 209, 1-(6-(3-(4-fluorophenyl)-1,2,4-oxadiazol-5-yl)-3-azabicyclo[3.1.1]heptan-3-yl)-2-(3-methyl-1,2,4-oxadiazol-5-yl)ethan-1-one]",≥ 10 µM
5,"Cc1nonc1CC(=O)N1CCC2(CC1)CC(c1nc(C3CCC(F)(F)CC3)no1)C2 [Compound 231, 1-(2-(3-(4,4-difluorocyclohexyl)-1,2,4-oxadiazol-5-yl)-7-azaspiro[3.5]nonan-7-yl)-2-(4-methyl-1,2,5-oxadiazol-3-yl)ethan-1-one]",> 10 µM
6,"Cc1nonc1CC(=O)N1CCC2(CC1)CC2c1nc(-c2ccc(F)cc2)no1 (centres unmarked) [Compound 237, 1-(1-(3-(4-fluorophenyl)-1,2,4-oxadiazol-5-yl)-6-azaspiro[2.5]octan-6-yl)-2-(4-methyl-1,2,5-oxadiazol-3-yl)ethan-1-one]",> 10 µM
7,"Cc1nonc1CC(=O)N1CCC(c2cc(-c3ccc(F)cc3)no2)CC1 [Compound 135, 1-(4-(3-(4-fluorophenyl)isoxazol-5-yl)piperidin-1-yl)-2-(4-methyl-1,2,5-oxadiazol-3-yl)ethan-1-one]",1.58 µM
8,"Cn1ncnc1CC(=O)N1CCC(c2nc(-c3ccc(CF)cc3)no2)CC1 [Compound 174, 1-(4-(3-(4-(fluoromethyl)phenyl)-1,2,4-oxadiazol-5-yl)piperidin-1-yl)-2-(1-methyl-1H-1,2,4-triazol-5-yl)ethan-1-one]",2.26 µM
9,"Cc1cncnc1CC(=O)N1CCC(c2nc(-c3ccc(Cl)c(Cl)c3)no2)CC1 [Compound 8, 1-(4-(3-(3,4-dichlorophenyl)-1,2,4-oxadiazol-5-yl)piperidin-1-yl)-2-(5-methylpyrimidin-4-yl)ethan-1-one]",0.479 µM
10,"Cn1ncnc1CC(=O)N1CCC(n2nnc(-c3ccc(F)cc3)n2)CC1 [Compound 187, 1-(4-(5-(4-fluorophenyl)-2H-tetrazol-2-yl)piperidin-1-yl)-2-(1-methyl-1H-1,2,4-triazol-5-yl)ethan-1-one]",3.07 µM
11,"Cc1nonc1CC(=O)N1CC2CC(C1)C2c1nc(C2CCC(F)(F)CC2)no1 (centres unmarked) [Compound 213, 1-(6-(3-(4,4-difluorocyclohexyl)-1,2,4-oxadiazol-5-yl)-3-azabicyclo[3.1.1]heptan-3-yl)-2-(4-methyl-1,2,5-oxadiazol-3-yl)ethan-1-one]",0.488 µM
12,"Cc1noc(CC(=O)N2CCC(c3nc(-c4cc(F)cc(Cl)c4)no3)CC2)n1 [Compound 45, 1-(4-(3-(3-chloro-5-fluorophenyl)-1,2,4-oxadiazol-5-yl)piperidin-1-yl)-2-(3-methyl-1,2,4-oxadiazol-5-yl)ethan-1-one]",2.19 µM
13,"Cc1nonc1CC(=O)N1CCC(n2nnc(-c3ccc(C(N)=O)cc3)n2)CC1 [Compound 149, 4-(2-(1-(2-(4-methyl-1,2,5-oxadiazol-3-yl)acetyl)piperidin-4-yl)-2H-tetrazol-5-yl)benzamide]",> 10 µM
14,"Cn1ncnc1CC(=O)N1CCC(c2nc(-c3ccc(S(F)(F)(F)(F)F)cc3)no2)CC1 [Compound 175, 2-(1-methyl-1H-1,2,4-triazol-5-yl)-1-(4-(3-(4-(pentafluoro-16-sulfaneyl)phenyl)-1,2,4-oxadiazol-5-yl)piperidin-1-yl)ethan-1-one]",1.63 µM
15,"Cc1noc(C2CCN(C(=O)Cc3nonc3C)CC2)n1 [Compound 82, 1-(4-(3-methyl-1,2,4-oxadiazol-5-yl)piperidin-1-yl)-2-(4-methyl-1,2,5-oxadiazol-3-yl)ethan-1-one]",> 10 µM
16,Cc1nonc1CC(=O)N1CCC(c2nc(-c3ccc(Cl)c(OC(F)(F)F)c3)no2)CC1 [Compound 101],0.731 µM
17,"Cc1nonc1CC(=O)N1CCC(c2nc(-c3ccc(Cl)cc3F)no2)CC1 [Compound 120, 1-(4-(3-(4-chloro-2-fluorophenyl)-1,2,4-oxadiazol-5-yl)piperidin-1-yl)-2-(4-methyl-1,2,5-oxadiazol-3-yl)ethan-1-one]",0.37 µM
18,"Cn1ncnc1CC(=O)N1CCC(n2nnc(-c3ccc(C(F)(F)F)cc3)n2)CC1 [Compound 171, 2-(1-methyl-1H-1,2,4-triazol-5-yl)-1-(4-(5-(4-(trifluoromethyl)phenyl)-2H-tetrazol-2-yl)piperidin-1-yl)ethan-1-one]",0.963 µM

row,SMILES,EC50
1,"Cn1cnc(CC(=O)N2CCC(c3nc(-c4ccc(F)cc4)no3)CC2)n1 [Compound 154, 1-(4-(3-(4-fluorophenyl)-1,2,4-oxadiazol-5-yl)piperidin-1-yl)-2-(1-methyl-1H-1,2,4-triazol-3-yl)ethan-1-one]",> 10 µM
2,"Cn1ncnc1CC(=O)N1CC2CC1CC2c1nc(-c2ccc(F)cc2)no1 (centres unmarked) [Compound 205, 1-(5-(3-(4-fluorophenyl)-1,2,4-oxadiazol-5-yl)-2-azabicyclo[2.2.1]heptan-2-yl)-2-(1-methyl-1H-1,2,4-triazol-5-yl)ethan-1-one]",1.6 µM
3,"Cc1noc(CC(=O)N2CCC(c3nc(-c4ccc(F)cc4)no3)CC2)n1 [Compound 49, 1-(4-(3-(4-fluorophenyl)-1,2,4-oxadiazol-5-yl)piperidin-1-yl)-2-(3-methyl-1,2,4-oxadiazol-5-yl)ethan-1-one]",1.44 µM
4,"Cc1nonc1CC(=O)N1CCC(c2nc(-c3ccc(C(F)(F)F)cc3)no2)CC1 [Compound 106, 2-(4-methyl-1,2,5-oxadiazol-3-yl)-1-(4-(3-(4-(trifluoromethyl)phenyl)-1,2,4-oxadiazol-5-yl)piperidin-1-yl)ethan-1-one]",0.754 µM
5,"Cc1noc(CC(=O)N2CC3CC2CC3c2nc(-c3ccc(F)c(F)c3)no2)n1 (centres unmarked) [Compound 192, 1-(5-(3-(3,4-difluorophenyl)-1,2,4-oxadiazol-5-yl)-2-azabicyclo[2.2.1]heptan-2-yl)-2-(3-methyl-1,2,4-oxadiazol-5-yl)ethan-1-one]",> 10 µM
6,"Cn1ncnc1CC(=O)N1CCC(c2noc(-c3ccc(Cl)c(Cl)c3)n2)CC1 [Compound 166, 1-(4-(5-(3,4-dichlorophenyl)-1,2,4-oxadiazol-3-yl)piperidin-1-yl)-2-(1-methyl-1H-1,2,4-triazol-5-yl)ethan-1-one]",0.71 µM
7,"Cc1noc(CC(=O)N2CCC(c3nc(C4CCC(F)(F)C4)no3)CC2)n1 (centres unmarked) [Compound 40, 1-(4-(3-(3,3-difluorocyclopentyl)-1,2,4-oxadiazol-5-yl)piperidin-1-yl)-2-(3-methyl-1,2,4-oxadiazol-5-yl)ethan-1-one]",> 25 µM
8,"Cn1ncnc1CC(=O)N1C[C@H]2C[C@@H](C1)[C@@H]2c1nc(-c2ccc(Cl)c(F)c2)no1 [Compound 221, 1-((1R,5S,6r)-6-(3-(4-chloro-3-fluorophenyl)-1,2,4-oxadiazol-5-yl)-3-azabicyclo[3.1.1]heptan-3-yl)-2-(1-methyl-1H-1,2,4-triazol-5-yl)ethan-1-one]",0.1 µM
9,"Cc1nonc1CC(=O)N1CCC(c2nc(-c3ccc(Cl)c(Cl)c3)no2)CC1 [Compound 95, 1-(4-(3-(3,4-dichlorophenyl)-1,2,4-oxadiazol-5-yl)piperidin-1-yl)-2-(4-methyl-1,2,5-oxadiazol-3-yl)ethan-1-one]",0.0644 µM
10,"Cc1nonc1CC(=O)N1CCC(c2ncc(-c3ccc(F)cc3)cn2)CC1 [Compound 253, 1-(4-(5-(4-fluorophenyl)pyrimidin-2-yl)piperidin-1-yl)-2-(4-methyl-1,2,5-oxadiazol-3-yl)ethan-1-one]",> 10 µM
11,"Cn1ncnc1CC(=O)N1CCC(c2nc(C3CCC(C)(F)CC3)no2)CC1 (centres unmarked) [Compound 160, 1-(4-(3-(4-fluoro-4-methylcyclohexyl)-1,2,4-oxadiazol-5-yl)piperidin-1-yl)-2-(1-methyl-1H-1,2,4-triazol-5-yl)ethan-1-one]",> 10 µM
12,"Cc1noc(CC(=O)N2CCC3(CC2)CC(c2nc(-c4ccc(F)c(F)c4)no2)C3)n1 [Compound 228, 1-(2-(3-(3,4-difluorophenyl)-1,2,4-oxadiazol-5-yl)-7-azaspiro[3.5]nonan-7-yl)-2-(3-methyl-1,2,4-oxadiazol-5-yl)ethan-1-one]",0.294 µM
13,"Cc1noc(CC(=O)N2CCC(c3nc(-c4ccc(OC(F)(F)F)cc4)no3)CC2)n1 [Compound 39, 2-(3-methyl-1,2,4-oxadiazol-5-yl)-1-(4-(3-(4-(trifluoromethoxy)phenyl)-1,2,4-oxadiazol-5-yl)piperidin-1-yl)ethan-1-one]",0.657 µM
14,"Cc1nonc1CC(=O)N1CCN(c2nc(-c3ccc(F)cc3)no2)CC1 [Compound 236, 1-(4-(3-(4-fluorophenyl)-1,2,4-oxadiazol-5-yl)piperazin-1-yl)-2-(4-methyl-1,2,5-oxadiazol-3-yl)ethan-1-one]",0.649 µM
15,"Cc1nonc1CC(=O)N1CCC(c2nc(C3CC4CCC3C4)no2)CC1 (centres unmarked) [Compound 64, 1-(4-(3-(bicyclo[2.2.1]heptan-2-yl)-1,2,4-oxadiazol-5-yl)piperidin-1-yl)-2-(4-methyl-1,2,5-oxadiazol-3-yl)ethan-1-one]",0.447 µM
16,"Cc1noc(CC(=O)N2CCC(c3nc(-c4ccc(Cl)c(F)c4)no3)CC2)n1 [Compound 44, 1-(4-(3-(4-chloro-3-fluorophenyl)-1,2,4-oxadiazol-5-yl)piperidin-1-yl)-2-(3-methyl-1,2,4-oxadiazol-5-yl)ethan-1-one]",0.229 µM
17,"Cc1noc(CC(=O)N2CCC3(CC2)CC(c2nc(C4CCC(F)(F)CC4)no2)C3)n1 [Compound 227, 1-(2-(3-(4,4-difluorocyclohexyl)-1,2,4-oxadiazol-5-yl)-7-azaspiro[3.5]nonan-7-yl)-2-(3-methyl-1,2,4-oxadiazol-5-yl)ethan-1-one]",> 10 µM
